The values below come from patent publication US12419306B2, “Mesostigmata mite control composition” (MEIJI SEIKA PHARMA CO., LTD., priority 2018, dated 2025).

Holding throughout (type): in vivo
The test system of test [1] is red mites (Dermanyssus gallinae). Description: Test Example 1: Control Effect 1 on Red Mites, Pasteur pipette contact test, 72 hours. As to conditions: for Ratio of dead and affected mites: 72 hours, unfed adult red mites. An excerpt: The tip of a Pasteur pipette was sealed with Parafilm, and a methanol solution of the compound A, or each pesticide (another pesticide) (single agent) described in the left columns of Tables 2, 4, and 6 described below, or a mixture (mixed agent) of the compound A and each pesticide described in the left column of Tables 2, 4, and 6 described below at a predetermined concentration was poured into the pipette through an upper portion thereof. One minute later, the Parafilm at the tip was detached, and the liquid agent was discharged. After the pipette was air dried, absorbent cotton was inserted to an upper end of the pipette, and 20 unfed adult red mites (Dermanyssus gallinae) were released into the pipette. After the tip was sealed with Hemato-Seal, the pipette was stored in the dark in an incubator at a temperature of 27 to 28° C. and a humidity of 50 to 60%. […] Then, the ratio (%) of dead and affected mites was calculated according to the following formula. The ratio (%) of dead and affected mites={(the number of dead mites+the number of affected mites)/(the number of survived mites+the number of affected mites+the number of dead mites)}×100

Test [2] shares this test system. Description: Test Example 3: Control Effect 3 on Red Mites, Pasteur pipette contact test, 3 hours. As to conditions: unfed adult red mites. The text has this: The tip of a Pasteur pipette was sealed with Parafilm, and a methanol solution of the compound represented by the formula (11), the compound represented by the formula (12), or flupyrimin (single agent), or a mixture (mixed agents) of the compound represented by the formula (11) or the compound represented by the formula (12) and flupyrimin at a predetermined concentration was poured into the pipette from an upper portion thereof. One minute later, the Parafilm at the tip was removed, and the liquid agent was discharged. After the pipette was air dried, absorbent cotton was inserted to an upper end of the pipette, and 20 unfed adult red mites (Dermanyssus gallinae) were released into the pipette. After the tip was sealed with Hemato-Seal, the pipette was stored in the dark in an incubator at a temperature of 27 to 28° C. and a humidity of 50 to 60%. After 3 hours had passed since the treatment, the mites were observed under a stereomicroscope to determine whether the mites were dead or alive and whether the mites were affected. Then, the ratio (%) of dead and affected mites was calculated according to the following formula. The ratio (%) of dead and affected mites={(the number of dead mites+the number of affected mites)/(the number of survived mites+the number of affected mites+the number of dead mites)}×100

For test [3] the test system is unchanged. Description: Test Example 2: Control Effect 2 on Red Mites, Pasteur pipette contact test, 3 hours. To be noted: unfed adult red mites. The protocol:
One minute later, the Parafilm at the tip was detached, and the liquid agent was discharged. […] Then, the ratio (%) of dead and affected mites was calculated according to the following formula.

[4] abbreviates: Dermanyssus gallinae, 72 h, read-out: Ratio of dead and affected mites.

Take `CCC(C)c1ccccc1OC(=O)NC` (stereo not drawn) [Fenobucarb, fenobucarb]: in test [1] (setting [4]), the pest or weed control at 50 ppm is 43.5%.

As for `CCc1nc2ccc(F)c(F)c2c(OC(=O)OC)c1C` [Formula (12)], the “Ratio of dead and affected mites” value in test [2] (single agent 20 ppm) is on record as 65.5%; in test [3] (single agent 10 ppm), 50.0%; in test [3] (single agent 20 ppm), 65.5%. Regarding `CC(C)=CC1C(C(=O)OCN2C(=O)C3=C(CCCC3)C2=O)C1(C)C` (stereo not drawn) [Tetramethrin, tetramethrin (phthalthrin)], the pest or weed control at 10 ppm in test [1] (setting [4]) was determined as 39.8%.

Take `COP(=O)(OC)C(O)C(Cl)(Cl)Cl` (stereo not drawn) [Trichlorfon, trichlorfon]: in test [1] (setting [4]), the pest or weed control at 200 ppm stood at 84.7%. Still for that read-out and setting: with `COP(=S)(OC)Oc1ccc([N+](=O)[O-])c(C)c1` [Fenitrothion, fenitrothion] the figure was 71.8%.

For the compound abamectin, the “Ratio of dead and affected mites” value in test [1] (single agent 50 ppm) was 69.9%.

Regarding `CNC(=O)Oc1cccc2ccccc12` [Carbaryl, carbaryl], in test [1] (setting [4]), the pest or weed control at 50 ppm was determined as 46.6%.

Take `CC(C)=CC1C(C(=O)OCc2cccc(Oc3ccccc3)c2)C1(C)C` (stereo not drawn) [Phenothrin, phenothrin]: the pest or weed control at 500 ppm in test [1] (setting [4]) came to 65.2%. For `O=C(N=c1ccccn1Cc1ccc(Cl)nc1)C(F)(F)F` [Flupyrimin, flupyrimin], the “Ratio of dead and affected mites” value in test [1] (single agent 50 ppm) is 65.3%; in test [1] (single agent 200 ppm) it was 58.6%; in test [1] (single agent 1000 ppm) it was 83.2%; in test [1] (single agent 5000 ppm), 75.0%; in test [2] (single agent 50 ppm) it was 48.8%; in test [2] (single agent 200 ppm), 48.5%. The “Ratio of dead and affected mites” value in test [2] (single agent 1000 ppm) came out at 40.9%. As to `CNC(=O)Oc1cccc2c1OC(C)(C)O2` [Bendiocarb, bendiocarb], the pest or weed control at 50 ppm in test [1] (setting [4]) turned out to be 30.5%.

Turning to `CNC(=O)Oc1ccccc1OC(C)C` [Propoxur, propoxur], the pest or weed control at 200 ppm in test [1] (setting [4]) came out at 77.9%.

For `CC1(C)C(C=C(Cl)Cl)C1C(=O)OCc1cccc(Oc2ccccc2)c1` (stereo not drawn) [Permethrin, permethrin], the pest or weed control at 50 ppm in test [1] (setting [4]) turned out to be 49.6%. Consider `COC(=O)Oc1c(C)c(C)nc2ccc(F)c(F)c12` [Formula (13)], for which, in test [3] (single agent 10 ppm), the “Ratio of dead and affected mites” value came to 89.9%. As to `CC1(C)[C@H](C(=O)O[C@H](C#N)c2cccc(Oc3ccccc3)c2)[C@@H]1C=C(Br)Br` [Deltamethrin, deltamethrin], the pest or weed control at 50 ppm in test [1] (setting [4]) stood at 75.8%.

Take `CCc1nc2ccc(F)c(F)c2c(OC(=O)C2CC2)c1C` [Formula (11)]: the “Ratio of dead and affected mites” value in test [2] (single agent 10 ppm) came out at 53.4%; in test [2] (single agent 20 ppm), 62.9%; in test [3] (single agent 5 ppm) it was 53.7%; in test [3] (single agent 10 ppm), 53.4%; in test [3] (single agent 20 ppm) it was 62.9%.
